Earlier results as cited in patent US6719977B1, “Methods to potentiate cancer therapies” (The General Hospital Corporation, priority 1998, dated 2004).

How the values were obtained:
[1] = collagenase treatment
[2] = infusion of collagenase
[3] = infusion of relaxin; fluid-filled subcutaneous balloon
[4] = animal models
[5] = animal models; remark: listed apart in the source
[6] = animal models; remark: listed apart in the source
fibroblast = details: a number of experimental settings

collagenase
hydraulic conductance [1]: increases hydraulic conductance | penetration of small and large molecules into a tumor [2]: dramatically facilitates penetration

relaxin
resistance to balloon expansion (pressure-volume relationship) [3]: decreased the resistance to balloon expansion | accumulation of collagen within implanted sponges [4]: prevent | parenchymal fibrosis accompanying oxidative pulmonary damage induced by bleomycin [5]: prevent | formation of fibrotic capsules surrounding impenetrable foreign bodies [6]: prevent

γ-interferon [a pleiotypic cytokine produced by helper T cells]
fibroblast proliferation and associated matrix deposition (fibroblast): inhibit fibroblast proliferation and associated matrix deposition
